The values below come from patent US20220401514A1, “ANTIMICROBIAL, BACTERIOPHAGE-DERIVED POLYPEPTIDES AND THEIR USE AGAINST GRAM-NEGATIVE AND ACID-FAST BACTERIA” (CONTRAFECT CORPORATION, priority 2019, published 2022).

A value given as a limit tells only on which side of the number the result lay.

In test [1] the test system is P. aeruginosa strain PAO1. The test can be described thus: MIC against PAO1 in Mueller-Hinton broth with 50% human plasma or human serum. Format: cell-based, Pseudomonas aeruginosa. Particulars: PAO1; for Minimal inhibitory concentration, Human Plasma: Mueller-Hinton broth with 50% human plasma; for Minimal inhibitory concentration, Human Serum: Mueller-Hinton broth with human serum.

The test system of the next test is Pseudomonas aeruginosa. The test can be described thus: microbe, parasite or virus in culture. Format: cell-based. Particulars: P. aeruginosa (ATCC 27853); control agents of Table 8.
Another test deals with Enterobacter cloacae. The experiment in a line: microbe, parasite or virus in culture. The test is classed as cell-based. An outline of the steps: (§1)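 Strains are exposed to peptide dilutions in CAA containing human serum, and the minimal inhibitory concentration is recorded.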
In the next test the test system is Escherichia coli. The test can be described thus: microbe, parasite or virus in culture. The test is classed as cell-based. The following applies: for MIC (in brackets beside MBEC): control agents of Table 8. An outline of the steps:
as §1

Another test deals with Acinetobacter baumannii. The test can be described thus: microbe, parasite or virus in culture. The test is classed as cell-based.
Test [2] deals with eight different strains of five species of Gram-negative bacteria. The test can be described thus: MBEC in eight strains of five species of Gram-negative bacteria. Format: cell-based. The following applies: 24 h biofilm in LB, 16 h treatment. How it is done:
Determination of Minimal Biofilm Eradicating Concentrations (MBEC). […] The OD600 of extracted crystal violet was determined. The MBEC value of each sample was determined as the minimum drug concentration required to remove >95% of biofilm biomass as assessed by crystal violet quantitation (in comparison to untreated controls).
MBEC values were likewise determined for Chp2, Chp2-M1, and Chp10-M1 in eight different strains of five species of Gram-negative bacteria. […] The films were then washed and stained with crystal violet to visualize the MBEC.

Another test has as its system LPS. The experiment in a line: Endotoxin neutralization, limulus amoebocyte lysate (LAL) enzyme assay, LPS binding. The test is classed as biochemical. Particulars: LPS 0.8 EU/mL; for LPS binding: […]-64 μg/mL, 24° C., 1 hour. On the procedure: CHEM. […] The standard reference samples contained only LPS dissolved in pyrogen-free water. Solutions were mixed well and incubated at 24° C. for 1 hour, and the manufacturers' test procedure for quantitative detection of endotoxins was followed.

Test [3] deals with Klebsiella pneumoniae. The test can be described thus: microbe, parasite or virus in culture. Particulars: control agents of Table 8. The test is classed as cell-based.
For test [4], the system named is carbapenem-resistant P. aeruginosa clinical isolate CFS-1292. The test can be described thus: MIC by modified CLSI broth microdilution against P. aeruginosa CFS-1292 (CAA, CAA + human serum). Format: cell-based, Pseudomonas aeruginosa. (In general: Dilution methods test growth across graded concentrations, often in twofold steps.)
Test [5] concerns Klebsiella pneumoniae. The test is classed as cell-based. The following applies: Klebsiella pneumoniae HM-44; CAA supplemented with human serum. On the procedure: Determination of Minimal Inhibitory Concentrations (MIC).
Additional MIC testing was performed for several peptides against the ESKAPE pathogens Escherichia coli, Enterobacter cloacae, Klebsiella pneumoniae, and Acinetobacter baumannii, in CAA supplemented with human serum (Table D).

A further test deals with M. smegmatis. The experiment in a line: 45 hr MIC against M. smegmatis (NTM), Mueller Hinton broth. The test is classed as cell-based, Mycobacterium smegmatis. Particulars: M. smegmatis MC^2 155, Run #1.
For test [6], the system named is A. baumannii strain BAA-747 persister cells. The experiment in a line: Activity against persister cells, A. baumannii. Format: cell-based, Acinetobacter baumannii. Particulars: A. baumannii BAA-747 persister cells.
In test [7] the test system is P. aeruginosa strain PA20 persister cells. The experiment in a line: Activity against persister cells, P. aeruginosa. The following applies: P. aeruginosa PA20 persister cells. Format: cell-based, Pseudomonas aeruginosa.
The subject of test [8] is Stenotrophomonas-containing biofilm on explanted hemodialysis catheters. The experiment in a line: Antibiofilm activity in explanted hemodialysis catheters. Format: cell-based, Stenotrophomonas spp. On the procedure:
The explanted hemodialysis catheters were cut into equal length segments and bisected to expose the lumen.
The samples were treated for 4 hours at 37° C. before rinsing with Lactated Ringer's solution.
Three additional infected hemodialysis catheter samples were removed from two patients (one catheter from a first patient and two catheters from a second patient). […] The samples were incubated at 37° C. for 4 hours.

Where [9] appears, read: peptide concentration 0.5 μg/mL.
Where [10] appears, read: log10 CFU/mL reduction as compared to buffer.

In the case of LL-37 [reference compound], in test [1], the “Minimal inhibitory concentration, Human Plasma” value is >64 µg/mL. The “Minimal inhibitory concentration, Human Serum” value in [1] was >64 µg/mL. The “MIC (in brackets beside MBEC)” value was “(16) μg/mL” in the test with Pseudomonas aeruginosa; “(16) μg/mL” in the test on Enterobacter cloacae (E. cloacae (CCUG 63317), control agents of Table 8); “(16) μg/mL” in the test on Escherichia coli (E. coli (ATCC 25922)); “(16) μg/mL” against Escherichia coli (E. coli (ATCC 35329)); “(16) μg/mL” with Escherichia coli (E. coli (EC2)); “(16) μg/mL” with Acinetobacter baumannii (A. baumanni (ATCC BAA-747), control agents of Table 8). For the same substance, the “MIC (in brackets beside MBEC)” value against Klebsiella pneumoniae [3] (K. pneumoniae (ATCC 700603)) and with Klebsiella pneumoniae [3] (K. pneumoniae (KP1)) was “(16) μg/mL” each time. Further, the MBEC came out at 0.25 µg/mL in test [2] (A. baumanni (ATCC BAA-747)); 8 µg/mL in test [2] (E. cloacae (CCUG 63317)); 16 µg/mL in test [2] (E. coli (ATCC 25922)); 16 µg/mL in [2] (E. coli (ATCC 35329)); 8 µg/mL in test [2] (E. coli (EC2)); 32 µg/mL in test [2] (K. pneumoniae (ATCC 700603)). Further, the MBEC in [2] (K. pneumoniae (KP1)) amounted to 16 µg/mL; in test [2] (P. aeruginosa (ATCC 27853)), 8 µg/mL. In the test with LPS, the LPS binding result is “dose-dependent increases in LPS binding”. Besides, the “% LPS Bound” value was determined as 90.6% in the test with LPS (setting [9]); 92.2% with LPS (peptide concentration 1 μg/mL); 92.9% in the test on LPS (peptide concentration 2 μg/mL); 92.3% in the test on LPS (peptide concentration 4 μg/mL); 92.4% in the test on LPS (peptide concentration 8 μg/mL); 92.1% with LPS (peptide concentration 16 μg/mL). For the same substance, the “% LPS Bound” value with LPS (peptide concentration 32 μg/mL) is recorded as 87.3%; with LPS (peptide concentration 64 μg/mL) it was 75.4%.
Take “MAEQYELSQEQSEQLFSETALQMHEQNELQEIMQGGIEF [Chp5]”: in [4] (100% CAA, 1st run or single value), the “MIC (μg/mL) against CFS-1292 in 100% CAA (1st run/2nd run)” value was >32 µg/mL. The “MIC (μg/mL) against CFS-1292 in CAA + […] human serum” value in test [4] (CAA + […] human serum) was >32 µg/mL. The MIC against Enterobacter cloacae (Enterobacter cloacae ATCC 13047, CAA supplemented with human serum) was >32 µg/mL; in the test on Escherichia coli (Escherichia coli ATCC 25922, CAA supplemented with human serum) it was 4 µg/mL; in the test with Klebsiella pneumoniae [5], 8 µg/mL; against Acinetobacter baumannii (Acinetobacter baumannii ATCC BAA 747, CAA supplemented with human serum) it was >32 µg/mL. Further, the “45 hr MIC” value in the test with M. smegmatis was >64 µg/mL. Besides, in the test with LPS, the LPS binding result is on record as “does not bind LPS”. Further, the “% LPS Bound” value with LPS (setting [9]) is 0.1%; in the test with LPS (peptide concentration 1 μg/mL), 0.1%; in the test on LPS (peptide concentration 2 μg/mL) it was 0.1%; in the test with LPS (peptide concentration 4 μg/mL), 0.1%; in the test with LPS (peptide concentration 8 μg/mL), 5.4%; in the test on LPS (peptide concentration 16 μg/mL) it was 0.1%. The figures for the “% LPS Bound” value in the test with LPS (peptide concentration 32 μg/mL) and in the test with LPS (peptide concentration 64 μg/mL) were 0.1% and 0.9%, respectively. For the same substance, in test [6] (1 hour at 37° C., Run #1, limit of detection 1.6-log10 CFU/mL), the “MIC Log10 (CFU/mL) Run #1” value is listed as 4.1 Log10 (CFU/mL). The “MIC Log10 (CFU/mL) Run #2” value in test [6] (1 hour at 37° C., Run #2, limit of detection 1.6-log10 CFU/mL) is on record as 5.1 Log10 (CFU/mL). In test [6] (1 hour at 37° C., Run #3, limit of detection 1.6-log10 CFU/mL), the “MIC Log10 (CFU/mL) Run #3” value was 4.5 Log10 (CFU/mL). In addition, the “MIC Log10 (CFU/mL) Average” value in [6] (average of 3 runs) is listed as 4.6 Log10 (CFU/mL). Also, the “Delta Log” value was 0.3 in test [6] (setting [10]) and 0.5 in test [7] (setting [10]). Besides, the “Viable persister count after treatment (log10 CFU/mL)” value is reported as 4.4 Log10 (CFU/mL) in test [7] (Run #1, limit of detection 2-log10 CFU/mL); 4.3 Log10 (CFU/mL) in test [7] (Run #2, limit of detection 2-log10 CFU/mL); 3.1 Log10 (CFU/mL) in test [7] (Run #3, limit of detection 2-log10 CFU/mL); 3.9 Log10 (CFU/mL) in [7] (average of 3 runs).
As for PGLa, in test [1], the “Minimal inhibitory concentration, Human Plasma” value was >64 µg/mL and the “Minimal inhibitory concentration, Human Serum” value was >64 µg/mL.
As to “Pediocin (KYYGNGVTCGKHSCSVDWGKATTCIINNGAMAWATGGHQGNHKC; Bacteriocin pediocin PA-1; UniProt P29430 19-62, looked up)”, in test [1], the “Minimal inhibitory concentration, Human Plasma” value was >64 µg/mL and the “Minimal inhibitory concentration, Human Serum” value was >64 µg/mL.
As for Protegrin 1, in test [1], the “Minimal inhibitory concentration, Human Plasma” value came to 1 µg/mL and the “Minimal inhibitory concentration, Human Serum” value was determined as 4 µg/mL.
For daptomycin, the “eradication of catheter biofilm” value in test [8] (first catheter sample, 4 hours at 37° C., Chp2-M1 10 μg/mL, CF-301 and daptomycin 1 μg/mL) is given as “did not”. Further, in [8] (treatment at 1 μg/mL), the “Log10 CFU/g for Catheter Sample #2 enumerated after 24 hours of incubation at 37 °C.” value amounted to 3.72 Log10 CFU/g and the “Log10 CFU/g for Catheter Sample #3 enumerated after 24 hours of incubation at 37 °C.” value stood at 4.15 Log10 CFU/g. For the same substance, the “Log10 CFU/g for Catheter Sample #1 (enumerated after 18 hours of incubation at 37 °C.)” value in test [8] (treatment at 1 μg/mL, 4 hours at 37° C.) amounted to 3.66 Log10 CFU/g.
